According to the NIST ThermoML archive (doi:10.1016/j.tca.2005.11.005):
± gives the expanded uncertainty stated by the source.

Assay: molar heat capacity at constant pressure; xn = mol fraction of the nth substance listed
Conditions: 101 kPa, Crystal, Small sample (50 mg) DSC

[Ce+4].[O-2].[O-2] [ceric oxide] + [O-2].[O-2].[U+4]
molar heat capacity at constant pressure [J/K/mol]
Conditions	298 K	300 K	400 K	500 K	600 K	700 K	800 K
x2 = 0	62.6 ± 1.3	62.7 ± 1.3	68.8 ± 1.4	73 ± 1.5	76.5 ± 1.5	78.6 ± 1.6	79.3 ± 1.6
x2 = 0.197	62.8 ± 1.3	64 ± 1.3	73.3 ± 1.5	81.2 ± 1.6	84.6 ± 1.7	84.5 ± 1.7	85.2 ± 1.7
x2 = 0.491	64.2 ± 1.3	64.8 ± 1.3	76.8 ± 1.5	85.9 ± 1.7	89.2 ± 1.8	89.6 ± 1.8	88.3 ± 1.8
x2 = 0.809	70.1 ± 1.4	70.4 ± 1.4	79.7 ± 1.6	86 ± 1.7	88.9 ± 1.8	90.3 ± 1.8	92 ± 1.8

[O-2].[O-2].[U+4] [uranium dioxide] + [Ce+4].[O-2].[O-2]
x1 = 1
Conditions	molar heat capacity at constant pressure [J/K/mol]
298 K	64 ± 1.3
300 K	64.1 ± 1.3
400 K	72.7 ± 1.5
500 K	77.5 ± 1.6
600 K	80.4 ± 1.6
700 K	82.6 ± 1.7
800 K	85.9 ± 1.7
